Consider seven compounds from patent publication EP4603105A1, “PHARMACEUTICAL COMPOSITION CONTAINING CYCLIC COMPOUND HAVING SELECTIVE KRAS INHIBITORY EFFECT AGAINST HRAS AND NRAS” (CHUGAI SEIYAKU KABUSHIKI KAISHA, priority 2022, dated 2024).

SMILES strings stand for the structures. *1 amine or outer side, *2 acyl side, *3 side chain or, on linkers, in order; H or OH if unused. Where a SMILES comes first, the peptide text is derived from it. Bridges are numbered along the chain shown (N, C = ends). [ ]: non-standard residue; d: D form. The star is where a group is joined. hPhe(3-Cl-4-CF3) = N[C@@H](CCc1ccc(C(F)(F)F)c(Cl)c1)C(=O)O; X51 = CCCN([C@@H](Cc1ccc(OC(F)(F)F)cc1)C(=O)[*:2])[*:1]; NPrPhe(4-CF3) = CCCN[C@@H](Cc1ccc(C(F)(F)F)cc1)C(=O)O; NMeGly(cPent) = CN[C@H](C(=O)O)C1CCCC1; Aze(3S-Me) = C[C@H]1CN[C@@H]1C(=O)O; Gly(cPent) = N[C@H](C(=O)O)C1CCCC1; cisHyp = O=C(O)[C@@H]1C[C@H](O)CN1; Hyp = O=C(O)[C@@H]1C[C@@H](O)CN1; NMeD = CN[C@@H](CC(=O)O)C(=O)O; NMeL = CN[C@@H](CC(C)C)C(=O)O; Morpholide = C1CN(*)CCO1; NMeA = CN[C@@H](C)C(=O)O; Ac5c = NC1(C(=O)O)CCCC1; Aze = O=C(O)[C@@H]1CCN1; Ethyl(2,2-F2) = FC(F)C*; Ac4c = NC1(C(=O)O)CCC1; Ac3c = NC1(C(=O)O)CC1; Sar = CNCC(=O)O

This assay has as its system human lung cancer strain NCI-H441. It is filed as cell-based. As for the experimental part:
A test compound was dispensed into a U-bottom 384-well plate as 40 nL serially diluted dimethyl sulfoxide solutions using a liquid handler Echo (LABCYTE). […] This cell suspension was dispensed in an amount of 40 µL per well into a plate containing the test compound, and cultured at 37°C in a 5% carbon dioxide gas incubator. Four days later, 20 µL of CellTiter-Glo (registered trademark) (Promega) was added to each well and […] was measured. […]
`CCCN1C(=O)CN(C)C(=O)CN(C)C(=O)[C@H]([C@@H](C)CC)NC(=O)[C@H](CC(C)C)N(C)C(=O)C[C@@H](C(=O)N2CCOCC2)N(C)C(=O)[C@H](C2CCCC2)N(C)C(=O)C2(CCCC2)NC(=O)[C@@H]2CCCN2C(=O)[C@H](CCc2ccc(C(F)(F)F)c(Cl)c2)NC(=O)CN(C)C(=O)[C@@H]1Cc1ccc(OC(F)(F)F)cc1` [PP0137] ([NMeL]I[Sar][Sar][X51][Sar][hPhe(3-Cl-4-CF3)]P[Ac5c][NMeGly(cPent)][NMeD]-Morpholide; lactam N-11) yielded an IC50 of 0.0134 µM. In other words, the double-digit nanomolar range. In the case of `CCCN1C(=O)CN(C)C(=O)CN(C)C(=O)[C@H]([C@@H](C)CC)NC(=O)[C@H](CC(C)C)N(C)C(=O)C[C@@H](C(=O)N2CCOCC2)N(C)C(=O)[C@H](C2CCCC2)N(C)C(=O)C2(CCCC2)NC(=O)[C@@H]2C[C@H](OCC(F)F)CN2C(=O)[C@H](CCc2ccc(C(F)(F)F)c(Cl)c2)NC(=O)CN(C)C(=O)[C@@H]1Cc1ccc(C(F)(F)F)cc1` [PP0245] ([NMeL]I[Sar][Sar][NPrPhe(4-CF3)][Sar][hPhe(3-Cl-4-CF3)][cisHyp](Ethyl(2,2-F2))[Ac5c][NMeGly(cPent)][NMeD]-Morpholide; lactam N-11) it was 0.0229 µM. On to `CCCN1C(=O)CN(C)C(=O)CN(C)C(=O)[C@H](C2CCCC2)NC(=O)[C@H](CC(C)C)N(C)C(=O)C[C@@H](C(=O)N2CCOCC2)N(C)C(=O)[C@H](C2CCCC2)N(C)C(=O)C2(CCCC2)NC(=O)[C@@H]2CCCN2C(=O)[C@H](CCc2ccc(C(F)(F)F)c(Cl)c2)NC(=O)CN(C)C(=O)[C@@H]1Cc1ccc(C(F)(F)F)cc1` [PP0251] ([NMeL][Gly(cPent)][Sar][Sar][NPrPhe(4-CF3)][Sar][hPhe(3-Cl-4-CF3)]P[Ac5c][NMeGly(cPent)][NMeD]-Morpholide; lactam N-11), for which the IC50 worked out at 0.0084 µM. For `CCCN1C(=O)[C@@H]2CCN2C(=O)C2(CC2)NC(=O)[C@H]([C@@H](C)CC)NC(=O)[C@H](CC(C)C)N(C)C(=O)C[C@@H](C(=O)N2CCOCC2)N(C)C(=O)[C@H](C2CCCC2)N(C)C(=O)C2(CCCC2)NC(=O)[C@@H]2CCCN2C(=O)[C@H](CCc2ccc(C(F)(F)F)c(Cl)c2)NC(=O)CN(C)C(=O)[C@@H]1Cc1ccc(C(F)(F)F)cc1` [PP0276] ([NMeL]I[Ac3c][Aze][NPrPhe(4-CF3)][Sar][hPhe(3-Cl-4-CF3)]P[Ac5c][NMeGly(cPent)][NMeD]-Morpholide; lactam N-11) the value was 0.752 µM. The compound `CCCN1C(=O)[C@@H]2CCN2C(=O)[C@@H]2[C@@H](C)CN2C(=O)[C@H]([C@@H](C)CC)NC(=O)[C@H](CC(C)C)N(C)C(=O)C[C@@H](C(=O)N2CCOCC2)N(C)C(=O)[C@H](C2CCCC2)N(C)C(=O)C2(CCCC2)NC(=O)[C@@H]2CCCN2C(=O)[C@H](CCc2ccc(C(F)(F)F)c(Cl)c2)NC(=O)CN(C)C(=O)[C@@H]1Cc1ccc(C(F)(F)F)cc1` [PP0279] ([NMeL]I[Aze(3S-Me)][Aze][NPrPhe(4-CF3)][Sar][hPhe(3-Cl-4-CF3)]P[Ac5c][NMeGly(cPent)][NMeD]-Morpholide; lactam N-11) gave an IC50 of 0.015 µM.

As to `CCCN1C(=O)[C@@H]2CCN2C(=O)CN(C)C(=O)[C@H]([C@@H](C)CC)NC(=O)[C@H](CC(C)C)N(C)C(=O)C[C@@H](C(=O)N(C)C)NC(=O)[C@H](C2CCCC2)N(C)C(=O)C2(CCCC2)NC(=O)[C@@H]2CCCN2C(=O)[C@H](CCc2ccc(C(F)(F)F)c(Cl)c2)NC(=O)CN(C)C(=O)[C@@H]1Cc1ccc(C(F)(F)F)cc1` [PP0385] ([NMeL]I[Sar][Aze][NPrPhe(4-CF3)][Sar][hPhe(3-Cl-4-CF3)]P[Ac5c][NMeGly(cPent)]D-NMe2; lactam N-11), half-maximal inhibition (IC50) required 0.0152 µM. The IC50 values of the last two compounds are within 1.5-fold of each other.

In turn, `CCCN1C(=O)[C@@H]2CCN2C(=O)[C@H](C)N(C)C(=O)[C@H]([C@@H](C)CC)NC(=O)[C@H](CC(C)C)N(C)C(=O)C[C@@H](C(=O)N(C)C)N(C)C(=O)[C@H](C2CCCC2)N(C)C(=O)C2(CCC2)NC(=O)[C@@H]2C[C@@H](OCC)CN2C(=O)[C@H](CCc2ccc(C(F)(F)F)c(Cl)c2)NC(=O)CN(C)C(=O)[C@@H]1Cc1ccc(C(F)(F)F)cc1` [PP0439] ([NMeL]I[NMeA][Aze][NPrPhe(4-CF3)][Sar][hPhe(3-Cl-4-CF3)][Hyp](Et)[Ac4c][NMeGly(cPent)][NMeD]-NMe2; lactam N-11) gave an IC50 of 0.0007 µM.
